Results: US20250206729A1, “DUAL RAF AND TUBULIN INHIBITORS AND METHODS OF USE THEREOF” (Deciphera Pharmaceuticals, LLC, priority 2023, published 2025)
Where two headings read alike, the source gives them in different places.

Tests used:
MiaPaca-2 cells = experiment: MiaPaca-2 cell proliferation assay; format: cell-based; conditions: Homo sapiens, MIA PaCa-2
Method: Miapaca-2 cells (catalog #CRL-1420) are obtained from the American Type Culture Collect (ATTC, Manassas, VA). Briefly, cells were grown in DMEM supplemented with 10% characterized fetal bovine serum (Invitrogen, Carlsbad, CA), 2.5% New Zealand sourced horse serum and 1% Penicillin/Streptomycin/L-Glutamine at 37° C., 5% CO2, and 95% humidity. Cells are expanded until reaching 70-95% confluency at which point they are sub-cultured or harvested for assay use. A serial dilution of test compound is dispensed into a 384-well black clear bottom plate in triplicate. Seven hundred fifty cells are added per well in 50 μL complete growth medium in the 384-well plate. Plates are incubated for 67-72 h at 37° C., 5% CO2, and 95% humidity. At the end of the incubation, 10 μL of a 440 μM solution of resazurin (Sigma, St. Louis, MO) in PBS is added to each well of the plate and plates are incubated for an additional 5-6 h at 37° C., 5% CO2, and 95% humidity. Plates are read on a Synergy2 or equivalent reader (Biotek, Winooski VT) using an excitation of 540 nm and an emission of 600 nm. Data is analyzed using Prism software (GraphPad, San Diego, CA) to calculate IC50 values.

HPAF-II cells = experiment: HPAF-II cell proliferation assay; format: cell-based; conditions: Homo sapiens
Method: (§1) HPAF-II cells (catalog #CRL-1997) are obtained from the American Type Culture Collect (ATCC, Manassas, VA). Briefly, cells are grown in Minimum Essential Media supplemented with 10% characterized fetal bovine serum (Invitrogen, Carlsbad, CA) and 1% Penicillin/Streptomycin/L-Glutamine at 37° C., 5% CO2, and 95% humidity. Cells are expanded until reaching 70-95% confluency at which point they are sub-cultured or harvested for assay use. A serial dilution of test compound is dispensed into a 384-well black clear bottom plate in triplicate. 750 cells are added per well in 50 μL complete growth medium in the 384-well plate. Plates are incubated for 115 to 120 h at 37° C., 5% CO2, and 95% humidity. At the end of the incubation, 40 μL of a […] solution of resazurin (Sigma, St. Louis, MO) in PBS is added to each well of the plate and plates are incubated for an additional 18 to 24 h at 37° C., 5% CO2, and 95% humidity. Plates are read on a Synergy2 or equivalent reader (Biotek, Winooski, VT) using an excitation of 540 nm and an emission of 600 nm. Data is analyzed using Prism software (Graphpad, San Diego, CA) to calculate IC50 values.

Pa16c cells = experiment: Pa16c cell proliferation assay; format: cell-based; conditions: 67 to 72 h incubation, resazurin; read-out: Pa16c (inhibition of cell proliferation, IC50)
Method: as §1, with “Pa16c” for “HPAF-II”, “cells” for “cells (catalog #CRL-1997)”, “Dr. Channing Der, University of North Carolina at Chapel Hill.” for “the American Type Culture Collect (ATCC, Manassas, VA).”, “Dulbecco's Modified Eagle Medium” for “Minimum Essential Media”, “67” for “115”, “72” for “120”

HCT-116 cells = experiment: HCT-116 cell proliferation assay; format: cell-based; conditions: Homo sapiens
Method: HCT-116 cells (catalog #CCL-247) are obtained from the American Type Culture Collect (ATCC, Manassas, VA). Briefly, cells are grown in McCoy's 5A supplemented with 10% characterized fetal bovine serum (Invitrogen, Carlsbad, CA) and 1% Penicillin/Streptomycin/L-Glutamine at 37° C., 5% CO2, and 95% humidity. Cells are expanded until reaching 70-95% confluency at which point they are sub-cultured or harvested for assay use. A serial dilution of test compound is dispensed into a 384-well black clear bottom plate in triplicate. 375 cells are added per well in 50 μL complete growth medium in the 384-well plate. Plates are incubated for 67 to 72 h at 37° C., 5% CO2, and 95% humidity. At the end of the incubation, 40 μL of a […] solution of resazurin (Sigma, St. Louis, MO) in PBS is added to each well of the plate and plates are incubated for an additional 4 to 5 h at 37° C., 5% CO2, and 95% humidity. Plates are read on a Synergy2 or equivalent reader (Biotek, Winooski, VT) using an excitation of 540 nm and an emission of 600 nm. Data is analyzed using Prism software (Graphpad, San Diego, CA) to calculate IC50 values.

[1] = target: T1, C-Raf kinase (SEQ ID NO: 2) (Homo sapiens, UniProt P04049, Y340D/Y341D); experiment: Biochemical assay for C-Raf (coupled pyruvate kinase/lactate dehydrogenase); conditions: 1 mM ATP; read-out: CRAF (inhibition of biochemical activity, IC50)
T1 construct: C-Raf residues 306-end; Y340D, Y341D with N-; GST (N); purchased Sigma
T1 sequence (P04049 307-648 Y340D/Y341D): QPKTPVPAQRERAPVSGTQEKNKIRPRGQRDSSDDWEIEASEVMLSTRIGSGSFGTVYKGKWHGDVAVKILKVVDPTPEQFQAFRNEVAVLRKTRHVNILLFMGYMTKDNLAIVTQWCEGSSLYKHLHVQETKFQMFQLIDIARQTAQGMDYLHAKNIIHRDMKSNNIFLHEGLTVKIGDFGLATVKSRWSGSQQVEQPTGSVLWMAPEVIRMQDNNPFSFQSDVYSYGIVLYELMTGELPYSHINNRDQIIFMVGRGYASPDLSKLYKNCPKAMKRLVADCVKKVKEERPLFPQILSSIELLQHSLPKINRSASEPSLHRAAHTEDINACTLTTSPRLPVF

[2] = target: T2, B-Raf kinase (SEQ ID NO: 1) (Homo sapiens, UniProt P15056); experiment: Biochemical assay for B-Raf (coupled pyruvate kinase/lactate dehydrogenase); conditions: 1 mM ATP; read-out: BRAF (inhibition of biochemical activity, IC50)
T2 construct: GST (N); purchased Sigma
T2 sequence (P15056 416-766): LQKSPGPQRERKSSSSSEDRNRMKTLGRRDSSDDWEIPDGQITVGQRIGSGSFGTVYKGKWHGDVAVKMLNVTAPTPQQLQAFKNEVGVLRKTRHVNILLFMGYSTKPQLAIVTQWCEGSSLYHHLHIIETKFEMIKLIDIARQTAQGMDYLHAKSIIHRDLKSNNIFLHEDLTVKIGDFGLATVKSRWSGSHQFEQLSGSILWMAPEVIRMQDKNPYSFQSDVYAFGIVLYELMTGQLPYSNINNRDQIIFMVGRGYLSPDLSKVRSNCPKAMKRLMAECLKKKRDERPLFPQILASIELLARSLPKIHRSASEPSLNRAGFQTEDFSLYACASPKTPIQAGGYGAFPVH

[3] = 67-72 h incubation, resazurin, read-out: MiaPaca-2 (inhibition of cell proliferation, IC50)
[4] = HPAF-II, 115 to 120 h incubation, resazurin, read-out: HPAF-II (inhibition of cell proliferation, IC50)
[5] = HCT-116, 67 to 72 h incubation, resazurin, read-out: HCT-116 (inhibition of cell proliferation, IC50)
[6] = Table 4, mutant KRAS pancreatic cancer cell line, anti-proliferative, read-out: MiaPaca-2
[7] = Table 4, mutant KRAS colorectal cancer cell line, anti-proliferative, read-out: HCT-116

Row | IC50 (MiaPaca-2 cells; [3]) | IC50 (HCT-116 cells; [5]) | IC50 [1] | IC50 [2] | Compound | IC50 (HPAF-II cells; [4]) | IC50 (Pa16c cells) | IC50 (MiaPaca-2 cells; [6]) | IC50 (HCT-116 cells; [7]) | IC50 (HPAF-II cells; Table 4, mutant KRAS pancreatic cancer cell line, anti-proliferative, read-out: HPAF-II)
1 | < 0.1 µM | < 0.1 µM | 1 to 10 µM | 1 to 10 µM | CNc1cc(-c2cc(NC(=O)c3cc(C(F)(F)F)cnn3)ccc2C)nc(N2C[C@H]3C[C@@H]2CO3)n1 [Example 94] | < 0.1 µM | < 0.1 µM |  |  | 
2 | < 0.1 µM | < 0.1 µM | < 0.1 µM | < 0.1 µM | CNc1cc(-c2cc(NC(=O)c3cc(C(F)(F)F)cnn3)ccc2C)cc(N2CCOCC2)n1 [Example 61] | < 0.1 µM | < 0.1 µM |  |  | 
3 | 1 to 10 µM | 1 to 10 µM | 1 to 10 µM | 1 to 10 µM | Cc1ccc(NC(=O)c2cc(C3CC3)cnn2)cc1-c1ccnc(N2C[C@@H](C)O[C@@H](C)C2)c1 [Example 85] | 1 to 10 µM | 1 to 10 µM |  |  | 
4 | 0.1 to 0.5 µM | 0.1 to 0.5 µM | < 0.1 µM | 0.1 to 0.5 µM | Cc1ccc(NC(=O)c2cc(C(F)(F)F)cnn2)cc1-c1cccc(N2CCOCC2)c1 [Example 41] | < 0.1 µM | 0.1 to 0.5 µM |  |  | 
5 | < 0.1 µM | < 0.1 µM | < 0.1 µM | < 0.1 µM | Cc1ccc(NC(=O)c2cc(C(C)(F)F)cnn2)cc1-c1cc(NCCO)nc(N2CCOCC2)c1 [Example 64] | < 0.1 µM | < 0.1 µM |  |  | 
6 | < 0.1 µM | < 0.1 µM | < 0.1 µM | 0.1 to 0.5 µM | Cc1ccc(NC(=O)c2cc(C3CC3)cnn2)cc1-c1ccnc(N2C[C@H]3C[C@@H]2CO3)c1 [Example 88] | < 0.1 µM | < 0.1 µM |  |  | 
7 | 0.1 to 0.5 µM | 1 to 10 µM | 0.5 to 1 µM | 1 to 10 µM | Cc1ccc(NC(=O)c2ccc(C(F)(F)F)nn2)cc1-c1cc(N[C@H](C)CO)nc(N2CCOCC2)c1 [Example 5] | 1 to 10 µM | 1 to 10 µM |  |  | 
8 | < 0.1 µM | < 0.1 µM | 1 to 10 µM | 0.1 to 0.5 µM | Cc1ccc(NC(=O)c2cc(C3CC3)cnn2)cc1-c1ccnc(N2C[C@@H]3C[C@H]2CO3)c1 [Example 89] | < 0.1 µM | < 0.1 µM |  |  | 
9 | < 0.1 µM | < 0.1 µM | < 0.1 µM | 0.1 to 0.5 µM | CNc1cc(-c2cc(NC(=O)c3cc(C4CC4)cnn3)ccc2C)cc(N2CCOCC2)n1 [Example 60] | < 0.1 µM | < 0.1 µM |  |  | 
10 | 1 to 10 µM | 1 to 10 µM | 1 to 10 µM | 1 to 10 µM | Cc1ccc(NC(=O)c2cc(Cl)cnn2)cc1-c1cncc(N2CCOCC2)c1 [Example 77] | 1 to 10 µM | 1 to 10 µM |  |  | 
11 | 1 to 10 µM | 1 to 10 µM | 1 to 10 µM | 1 to 10 µM | Cc1ccc(NC(=O)c2cc(Cl)cnn2)cc1-c1cncc(N2CCOCC2)n1 [Example 65] | 1 to 10 µM | 1 to 10 µM |  |  | 
12 | 0.1 to 0.5 µM | 0.1 to 0.5 µM | 0.1 to 0.5 µM | 0.1 to 0.5 µM | Cc1ccc(NC(=O)c2cc(C(F)(F)F)cnn2)cc1-c1ccnc(N2CCOC(C(F)F)C2)c1 (stereo not shown) [Example 26] | 0.1 to 0.5 µM | 0.5 to 1 µM |  |  | 
13 | 0.1 to 0.5 µM | 0.5 to 1 µM | < 0.1 µM | < 0.1 µM | Cc1ccc(NC(=O)c2cncc(Cl)c2)cc1-c1cc(N[C@H](C)CO)nc(N2CCOCC2)c1 [Example 16] | 0.5 to 1 µM | 1 to 10 µM |  |  | 
14 | 1 to 10 µM | 1 to 10 µM | 1 to 10 µM | 1 to 10 µM | Cc1ccc(NC(=O)c2cc(C(F)(F)F)cnn2)cc1-c1ccnc(N2C[C@@H](C)O[C@@H](C)C2)c1 [Example 84] | 1 to 10 µM |  |  |  | 
15 | < 0.1 µM | < 0.1 µM | 0.1 to 0.5 µM | 0.1 to 0.5 µM | Cc1ccc(NC(=O)c2cc(C(F)(F)F)cnn2)cc1-c1ccnc(N2C[C@@H]3C[C@H]2CO3)c1 [Example 87] | < 0.1 µM | < 0.1 µM |  |  | 
16 | 0.1 to 0.5 µM | 0.1 to 0.5 µM | 0.1 to 0.5 µM | 0.5 to 1 µM | Cc1ccc(NC(=O)c2cc(C(F)(F)F)cnn2)cc1-c1cc(OCCO)nc(N2CCOCC2)n1 [Example 30] | 0.1 to 0.5 µM | 0.1 to 0.5 µM |  |  | 
17 | 1 to 10 µM | 1 to 10 µM | < 0.1 µM | < 0.1 µM | C=C(C)c1cncc(C(=O)Nc2ccc(C)c(-c3cc(N[C@H](C)CO)nc(N4CCOCC4)c3)c2)n1 [Example 53] | 1 to 10 µM | 1 to 10 µM |  |  | 
18 | 1 to 10 µM | 1 to 10 µM | 0.5 to 1 µM | 1 to 10 µM | Cc1ccc(NC(=O)c2cnc(Cl)nc2)cc1-c1cc(N[C@H](C)CO)nc(N2CCOCC2)c1 [Example 38] | 1 to 10 µM | 1 to 10 µM |  |  | 
19 | 0.5 to 1 µM | 0.5 to 1 µM | 0.5 to 1 µM | 0.5 to 1 µM | Cc1ccc(NC(=O)c2cc(C(F)(F)F)cnn2)cc1-c1cnnc(N2CCOCC2)c1 [Example 21, N-(4-methyl-3-(6-morpholinopyridazin-4-yl)phenyl)-5-(trifluoromethyl)pyridazine-3-carboxamide] | 0.5 to 1 µM | 1 to 10 µM |  |  | 
20 | 1 to 10 µM | 1 to 10 µM | 1 to 10 µM | 1 to 10 µM | Cc1ccc(NC(=O)c2cc(C(F)(F)F)cnn2)cc1-c1cc(N2CCOCC2)cnn1 [Example 22] | 1 to 10 µM | 1 to 10 µM |  |  | 
21 |  |  |  |  | CCCS(=O)(=O)Nc1ccc(F)c(C(=O)c2c[nH]c3ncc(-c4ccc(Cl)cc4)cc23)c1F [Vemurafenib, vemurafenib, reference compound] |  |  | 1 to 10 µM | 1 to 10 µM | 
22 |  |  |  |  | CC(C)(C)c1nc(-c2cccc(NS(=O)(=O)c3c(F)cccc3F)c2F)c(-c2ccnc(N)n2)s1 [Dabrafenib, dabrafenib, reference compound] |  |  | 1 to 10 µM | 1 to 10 µM | 1 to 10 µM
